# Measurements as given in patent publication US9981940B2, “Aryl sulfide derivatives and aryl sulfoxide derivatives as acaricides and insecticides” (BAYER CROPSCIENCE AKTIENGESELLSCHAFT, priority 2013, dated 2018).
# What was measured:
# [1] = tested on: Tetranychus urticae; test: Tetranychus urticae spray test, OP-resistant (TETRUR); assay type: in vivo; conditions: after 6 days; for pest or weed control at 500 g/ha: Tetranychus urticae, 144 h, read-out: efficacy
# Method in brief: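 Bean leaf discs infested with all stages of an OP-resistant Tetranychus urticae strain sprayed with compound in acetone/DMF with alkylaryl polyglycol ether emulsifier, diluted in water. Efficacy in % scored after 6 days; 100% means all mites killed.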
# [2] = log P by HPLC (OECD Guideline 117), method [b] neutral range; assay type: physicochemical; conditions: for logP[b]: method [b] neutral range; for chromatographic logP: reversed-phase C18 HPLC column
# Procedure: (§1) The log P values were determined analogously to OECD Guideline 117 (EC Directive 92/69/EEC) by HPLC (high-performance liquid chromatography) using reversed-phase columns (C 18), by the following methods:
# [b] The LC-MS determination in the neutral range is effected at pH 7.8 with 0.001 molar aqueous ammonium hydrogencarbonate solution and acetonitrile as eluents; linear gradient from 10% acetonitrile to 95% acetonitrile.
# [3] = log P by HPLC (OECD Guideline 117), method [a] acidic range; assay type: physicochemical; conditions: for logP[a]: method [a] acidic range; for chromatographic logP: reversed-phase C18 HPLC column
# Procedure: as §1
# [a] The LC-MS determination in the acidic range is effected at pH 2.7 with 0.1% aqueous formic acid and acetonitrile (contains 0.1% formic acid) as eluents; linear gradient from 10% acetonitrile to 95% acetonitrile.
# [4] = pH 2.7, HPLC method [a], acidic range, read-out: logP[a]
# [5] = pH 2.7, HPLC, acidic range, pH 2.7, read-out: log P[a]
SMILES,logP[b] ([2]; HPLC),logP[a] ([3]; HPLC),efficacy ([1]; application rate of 500 g/ha) [%],other results
Cc1cc(F)c(N2CC(OC(C)C)=CC2=O)cc1[S+]([O-])CC(F)(F)F (centres unmarked) [Example 325],2.43,2.46,100,
CCCCOC1=CC(=O)N(c2cc([S+]([O-])CC(F)(F)F)c(C)cc2F)C1 (centres unmarked) [Example 326],2.88,2.91,90,
COC1=CC(=O)N(c2cc(SCC(F)(F)F)c(Cl)cc2F)C1 [Example 327],2.92,2.97,90,
CCOC1=CC(=O)N(c2cc([S+]([O-])CC(F)(F)F)c(C)cc2F)C1 (centres unmarked) [Example 334],2.14,2.19,,efficacy ([1]; application rate of 20 g/ha): 90%
COCCOC1=CC(=O)N(c2cc([S+]([O-])CC(F)(F)F)c(C)cc2F)C1 (centres unmarked) [Example 335],1.86,1.92,90,
Cc1cc(F)c(N2C(=O)C=C(Br)C2=O)cc1SCC(F)(F)F [Example 337],3.50,3.91,90,
Cc1cc(F)c(N2C(=O)C(Cl)=C(Cl)C2=O)cc1SCC(F)(F)F [Example 338],4.00,3.99,90,
"CC1=C(C)C(=O)N(c2cc(SCC(F)(F)F)c(C)cc2F)C1=O [Example 339, 1-{2-Fluoro-4-methyl-5-[(2,2,2-trifluoroethyl)sulphanyl]phenyl}-3,4-dimethyl-1H-pyrrole-2,5-dione]",,,,"pest or weed control at 500 g/ha ([1]; application rate of 500 g/ha): 90%; chromatographic logP ([2]; HPLC, neutral range, pH 7.8): 3.61; chromatographic logP [3, 4]: 3.6; chromatographic logP [3, 5]: 3.6"
CC1=CC(=O)N(c2cc(SCC(F)(F)F)c(C)cc2F)C1=O [Example 340],3.39,3.37,90,
CC1=C(C)C(=O)N(c2cc([S+]([O-])CC(F)(F)F)c(C)cc2F)C1=O (centres unmarked) [Example 341],2.49,2.52,90,
CC1=C(C)C(=O)N(c2cc(SCC(F)(F)F)c(C)cc2C)C1=O [Example 342],3.70,3.73,90,"log P[b] ([2]; HPLC, neutral range, pH 7.8): 3.67; log P[a] ([3]; HPLC, acidic range, pH 2.7): 2.07"
"Cc1cc(F)c(-n2c(C)c(C)sc2=NCC(F)(F)F)cc1SCC(F)(F)F [Example 343, 2,2,2-Trifluoro-N-[3-{2-fluoro-4-methyl-5-[(2,2,2-trifluoroethyl)sulphanyl]phenyl}-4,5-dimethyl-1,3-thiazol-2(3H)-ylidene]ethanamine]",,,,"pest or weed control at 500 g/ha ([1]; application rate of 500 g/ha): 100%; chromatographic logP ([2]; HPLC, neutral range, pH 7.8): 4.91; chromatographic logP [3, 4]: 3.02; chromatographic logP [3, 5]: 3.02"
Cc1cc(F)c(-n2c(C)c(C)sc2=NCC(F)(F)F)cc1[S+]([O-])CC(F)(F)F (centres unmarked) [Example 344],,,,"pest or weed control at 500 g/ha ([1]; application rate of 500 g/ha): 100%; chromatographic logP ([2]; pH 7.8, HPLC method [b], neutral range): 3.68; chromatographic logP [3, 4]: 2.17"
CCc1nn(-c2cc(SCC(F)(F)F)c(C)cc2F)c(=O)n1-c1cccnc1 [Example 348],2.87,2.91,90,
"Cc1cc(F)c(-n2nc(C3CCCC3)n(C3CC3)c2=O)cc1SCC(F)(F)F [Example 358, 5-Cyclopentyl-4-cyclopropyl-2-{2-fluoro-4-methyl-5-[(2,2,2-trifluoroethyl)sulphanyl]phenyl}-2,4-dihydro-3H-1,2,4-triazol-3-one]",,,,"pest or weed control at 500 g/ha ([1]; application rate of 500 g/ha): 100%; chromatographic logP ([2]; HPLC, neutral range, pH 7.8): 4.2; chromatographic logP [3, 4]: 4.18; chromatographic logP [3, 5]: 4.18"
Cc1cc(F)c(-n2nc(C3CCCC3)n(C3CC3)c2=O)cc1[S+]([O-])CC(F)(F)F (centres unmarked) [Example 360],3.03,3.06,90,
Cc1cc(F)c(-n2nc(C3CCCCC3)n(C3CC3)c2=O)cc1[S+]([O-])CC(F)(F)F (centres unmarked) [Example 361],3.31,3.34,100,
Cc1cc(F)c(-n2nc(C(F)(F)F)n(C(C)C)c2=O)cc1[S+]([O-])CC(F)(F)F (centres unmarked) [Example 363],3.18,3.22,100,
C=CCn1c(C(F)(F)F)nn(-c2cc([S+]([O-])CC(F)(F)F)c(C)cc2F)c1=O (centres unmarked) [Example 364],2.96,3.00,90,
CCCCn1c(C(F)(F)F)nn(-c2cc([S+]([O-])CC(F)(F)F)c(C)cc2F)c1=O (centres unmarked) [Example 365],3.54,3.61,100,
Cc1cc(F)c(-n2ncn(Cc3ccccc3)c2=O)cc1SCC(F)(F)F [Example 368],3.34,3.38,100,
Cc1cc(F)c(-n2ncn(C(C)(C)C)c2=O)cc1[S+]([O-])CC(F)(F)F (centres unmarked) [Example 369],2.16,2.21,100,
Cc1cc(F)c(-n2ncn(Cc3ccccc3)c2=O)cc1[S+]([O-])CC(F)(F)F (centres unmarked) [Example 370],2.36,2.35,100,
Cc1cc(C)c(-n2ncn(C(C)(C)C)c2=O)cc1SCC(F)(F)F [Example 371],3.39,3.46,100,
Cc1cc(C)c([S+]([O-])CC(F)(F)F)cc1-n1ncn(C(C)(C)C)c1=O (centres unmarked) [Example 372],2.28,2.34,100,
Cc1cc(C)c([S+]([O-])CC(F)(F)F)cc1-n1ncn(Cc2ccccc2)c1=O (centres unmarked) [Example 374],2.47,2.50,90,

# More lines, main results first:
logP[b] ([2]; HPLC),logP[a] ([3]; HPLC),SMILES,efficacy ([1]; application rate of 500 g/ha) [%],other results
4.04,4.02,C=CCn1c(C(F)(F)F)nn(-c2cc(SCC(F)(F)F)c(C)cc2F)c1=O [Example 345],100,
2.92,2.97,Cc1cc(F)c(-n2nc(C3CC3)n(C)c2=O)cc1SCC(F)(F)F [Example 346],90,
3.63,3.70,Cc1cc(F)c(-n2nc(C3CC3)n(C(C)C)c2=O)cc1SCC(F)(F)F [Example 347],100,
3.66,3.63,Cc1cc(F)c(-n2nc(CCOC(C)C)n(C3CC3)c2=O)cc1SCC(F)(F)F [Example 359],100,
2.61,2.63,Cc1cc(F)c(-n2nc(CCOC(C)C)n(C3CC3)c2=O)cc1[S+]([O-])CC(F)(F)F (centres unmarked) [Example 362],90,
3.71,3.77,COc1ccccc1-c1nn(-c2cc(SCC(F)(F)F)c(C)cc2F)c(=O)n1C1CC1 [Example 366],100,
3.23,3.27,Cc1cc(F)c(-n2ncn(C(C)(C)C)c2=O)cc1SCC(F)(F)F [Example 367],100,
3.70,3.74,C=CCOc1nn(-c2cc(SCC(F)(F)F)c(C)cc2F)c(=O)n1C1CC1 [Example 375],100,
3.92,4.01,Cc1cc(C)c(-n2nc(OCC(F)(F)F)n(C3CC3)c2=O)cc1SCC(F)(F)F [Example 377],100,
4.48,4.43,O=c1n(-c2ccc(Br)c(SCC(F)(F)F)c2)nc(OCC(F)(F)F)n1C1CC1 [Example 378],90,
4.71,4.77,Cc1cc(F)c(-n2nc(OCC(C)(C)C)n(C3CC3)c2=O)cc1SCC(F)(F)F [Example 386],100,
3.15,3.16,COCCCn1c(OC)nn(-c2cc(SCC(F)(F)F)c(C)cc2F)c1=O [Example 388],90,
3.46,3.53,CCCn1c(OC)nn(-c2cc(SCC(F)(F)F)c(C)cc2F)c1=O [Example 389],90,
2.65,2.68,C=CCOc1nn(-c2cc([S+]([O-])CC(F)(F)F)c(C)cc2F)c(=O)n1C1CC1 (centres unmarked) [Example 391],100,
4.32,4.38,COc1cc(F)c(-n2nc(OCC(C)(C)C)n(C3CC3)c2=O)cc1SCC(F)(F)F [Example 395],100,
4.85,4.92,Cc1cc(Cl)c(-n2nc(OCC(C)(C)C)n(C3CC3)c2=O)cc1SCC(F)(F)F [Example 396],100,
5.04,5.12,CC(C)(C)COc1nn(-c2cc(SCC(F)(F)F)c(Cl)cc2Cl)c(=O)n1C1CC1 [Example 397],100,
3.79,3.84,CCn1c(OCC(F)(F)F)nn(-c2cc(SCC(F)(F)F)c(C)cc2F)c1=O [Example 398],100,
3.89,3.94,C=CCn1c(OCC(F)(F)F)nn(-c2cc(SCC(F)(F)F)c(C)cc2F)c1=O [Example 399],90,
